Data published in US20090089889A9, “Neuromedin u receptor subtype 1 deficient transgenic mice and uses thereof” (priority 2006, published 2009).
“Also recorded” adds a separate entry of the source. Where no end group is shown, it is not given here.

Experiments:
Format in all cases: in vivo, mouse
Nmur2−/− mice [1] = test: Acute peripheral (i.p.) NMU administration in NMUR2 knockout mice; conditions: peripherally administered NMU
Protocol: (§1) Food intake (FIG. 1A) and body weight (FIG. 1B) were measured in C57BL/6 mice dosed intraperitoneally (i.p.) either with vehicle (saline) or with NMU approximately 30 minutes prior to onset of darkness. Measurements were taken about 18 hours later. * indicates p value of <0.05, n=6 per treatment group. In FIGS. 1C and 1D, food intake and body weight are measured in Nmur1 and Nmur2 mice dosed ip with either saline or 30 mg/kg (mkg) NMU about 30 minutes prior to the onset of the dark phase. Measurements were taken 18 hrs later. *, P<0.05 vs. saline, n=6 per treatment group. Nmur1 or Nmur2 mice were dosed i.p. with either vehicle (saline) or 30 mpk NMU ˜30 min. prior to the onset of the dark phase and food intake (C) and body weights (D) were measured 18 h (overnight) later. *, P<0.05 vs. corresponding vehicle; #, P<0.05 vs. Nmu1r+/+, NMU; $, P=0.052; n=10 per treatment group.
(§2) The Nmur1 mice were maintained on a 50% C57BL/6×50% 129S6/SvEv background and Nmur2 mice (licensed from Deltagen) on a 75% C57BL/6×25% 129/OlaHsd background. For comparison with wild-type, 10-12 week-old male C57BL/6 mice were purchased from Taconic Farms. Mice were individually housed in Tecniplast cages in a conventional SPF facility. […]

Nmur1−/− mice [2] = test: Acute NMU administration (peripheral, i.p.) in NMUR1 knockout mice
Protocol: as §1
Nmur1 knockout (Nmur1^−/−) mice were generated using standard homologous recombination techniques. Briefly, a mouse genomic DNA library was screened with a mouse Nmur1mur cDNA probe, which was generated by PCR. One positive clone was isolated. Two regions of the clone were subcloned into pKO Scrambler NTKV-1904 (Stratagene) and a targeting vector was generated. The targeting vector was linearized by NotI restriction enzyme digestion and transformed into AB2.1 embryonic stem (ES) cells by electroporation with a Bio-Rad Gene Pulser. Transfected cells were cultured with G418 and FIAU for positive and negative selections, respectively. Approximately 500 clones were selected, and 20 correctly targeted ES cell clones were identified by Southern blot analysis. Five correctly targeted ES clones were injected into C57BL/6 blastocysts and these were implanted into pseudopregnant female mice. Several chimeric progeny gave germ-line transmission of the mutant NMUR1 allele and one NMUR1^−/− was established. F3 hybrid mice were used in all experiments
(§3) The Nmur1 mice were maintained on a 50% C57BL/6×50% 129S6/SvEv background and Nmur2 mice (licensed from Deltagen) on a 75% C57BL/6×25% 129/OlaHsd background. For comparison with wild-type, 10-12 week-old male C57BL/6 mice were purchased from Taconic Farms. Mice were individually housed in Tecniplast cages in a conventional SPF facility. Mice were maintained on either regular chow (Teklad 7012: 13.4% kcal from fat; Harlan Teklad), a moderate fat diet (D12266B: 32% kcal from fat; Research Diets, Inc.) or, to induce obesity (DIO), a high fat diet (D12492: 60% kcal from fat; Research Diets, Inc.) with ad libitum access to water in a 12-h light/12-h dark cycle, unless stated otherwise.
(§4) For acute nocturnal feeding studies, ad libitum fed male mice maintained on regular chow were weighed and dosed either intraperitoneally (ip) or icv ˜30 min prior to the onset of the dark phase of the light cycle and provided with a preweighed aliquot of chow which was then weighed two and 18 hours (overnight) after the onset of the dark phase. Mice were again weighed at the later time point. For chronic feeding studies, ad libitum fed male mice normally maintained on regular chow were switched to a palatable moderate fat diet at the initiation of treatment and food intake and body weight were measured daily.

C57BL/6 mice [3] = test: 14-day chronic i.c.v. infusion via Alzet mini-osmotic pumps
Protocol: FIG. 4 depicts treatment of C57BL/6 mice with either vehicle (aCSF); 12, 36 or 120 μg NMU/day; or 4.8 μg MTII/day for 14 days via Alzet mini-osmotic pumps implanted subcutaneously in the intrascapular space and connected with a catheter to a permanent indwelling i.c.v cannula implanted in the dorsal third cerebroventricle. 14-day cumulative effects on body weight (A), adiposity (B) and food intake (C). *, P<0.05 vs. vehicle; n=5-8 per group.
Mice were anesthetized with an intramuscular (im) injection of ketamine (100 mg/kg) and domitor (0.75 mg/kg) and placed in a stereotactic device (Kopf Instruments). For acute i.c.v. studies, a 26-gauge single acute guide cannula (Plastics One) was implanted into the dorsal third cerebral ventricle (0.22 mm posterior, 0.3 mm lateral and 3.3 mm ventral to bregma) and secured to the skull with cyanoacrylate adhesive followed by dental cement. Following surgery, a 33-gauge dummy cannula (Plastics One) was inserted into each guide cannula and mice were given an im injection of atapimazole (5 mg/kg). All cannulated mice were given one week of postoperative recovery, during which time they were handled daily to minimize nonspecific stress. All substances were administered to conscious mice with a repeating dispenser (Hamilton) equipped with a 50-μl Hamilton syringe and 33-gauge needle designed to extend 0.1-0.2 mm beyond the tip of the guide cannula. Mouse NMU-23 (Phoenix Pharmaceuticals) was dissolved in artificial cerebrospinal fluid (aCSF; Harvard Apparatus) and adjusted the pH to ˜7 with NaOH. All substances were injected in a total volume of 1 μl. Mice were given at least a 48-h recovery period between treatments. All acute icv injection studies were of crossover design, a paradigm in which mice initially treated with vehicle are subsequently treated with the agent of interest dissolved in vehicle and vice versa. For chronic icv studies, a 28-gauge osmotic pump connector cannula (Plastics One) was implanted into the dorsal third cerebral ventricle and secured to the skull. Then a micro-osmotic pump designed to deliver 0.5 μl/h (Alza Co.) and filled with aCSF was implanted subcutaneously in the intrascapular space and connected with vinyl tubing to the osmotic pump connector cannula.
(§5) Immediately following surgery, mice were given an im injection of atapimazole. Five days following the initial surgery, mice were again anesthetized and placed in the stereotactic device. Micro-osmotic pumps were removed and replaced with mini-osmotic pumps designed to deliver 0.5 μl/h (Alza Co.) and filled with either aCSF or mouse NMU-23 (Mimotopes) or MTII (Bachem) dissolved in aCSF. The pH of all solutions was adjusted to ˜7 with NaOH. Immediately following surgery, mice were given an im injection of atapimazole. For chronic sc infusions studies, mice were anesthetized and then a micro-osmotic pump designed to deliver 0.5 μl/h and filled with either sterile H2O or mouse NMU-23 (Mimotopes) or MTII (Bachem) dissolved in sterile H2O was implanted subcutaneously in the intrascapular space. The pH of all solutions was adjusted to ˜7 with NaOH. Immediately following surgery, mice were given an im injection of atapimazole.
as §4, with “daily. […]” for “daily.”

Nmur1−/− mice [4] = test: Acute central (i.c.v.) NMU administration in NMUR1 knockout mice; conditions: centrally administered NMU
Protocol: (§6) FIG. 2A describes results from an experiment where C57BL/6 mice were dosed intracerebronventricularly (i.c.v) with either vehicle (aCSF) or NMU ˜30 min. prior to the onset of the dark phase and food intake was measured 2 h later. *, P<0.05 vs. vehicle; n=12-24 per group. In FIG. 2B, Nmur1 or Nmur2 mice were dosed i.c.v. with either vehicle (aCSF) or 3 μg NMU ˜30 min. prior to the onset of the dark phase and food intake was measured 2 h later. *, P<0.05 vs. corresponding vehicle; #, P<0.05 vs. Nmur2+/+, NMU; n=14 per treatment group.
(§7) Mice were anesthetized with an intramuscular (im) injection of ketamine (100 mg/kg) and domitor (0.75 mg/kg) and placed in a stereotactic device (Kopf Instruments). […]
as §4, with “Mice were again weighed at the later time point.” left out

C57BL/6 mice [5] = test: 7-day chronic s.c. infusion via Alzet micro-osmotic pumps; conditions: C57BL/6 mice, 0.3, 1, 3 or 10 mpk NMU/day s.c. infusion for 7 days
Text: FIG. 3 describes the results from treatment of C57BL/6 mice with either vehicle (H2O); 0.3, 1, 3 or 10 mpk NMU/day; or 10 mpk MTII/day for 7 days via Alzet micro-osmotic pumps implanted sc in the intrascapular space. 7-day cumulative effects on body weight (A), adiposity (B) and food intake (C). *, P<0.05 vs. Vehicle; n=4-10 per treatment group.
as §5
as §4, with “Mice were again weighed at the later time point.” left out
Whole body composition analysis of conscious live mice was conducted using a Quantitative Magnetic Resonance (QMR) method (EchoMRI™, Echo Medical Systems, Houston, Tex.) (Tinsley et al. (2004) Obesity Research 12:150). […]

Nmur2−/− mice [6] = test: Acute central (i.c.v.) NMU administration in NMUR2 knockout mice; conditions: i.c.v. 3 μg NMU, 2 h
Protocol: as §6, §7
as §4, with “Mice were again weighed at the later time point.” left out

C57BL/6 mice [7] = test: Acute nocturnal feeding study, central (i.c.v.) NMU in wild-type mice; conditions: measured 2 h later
Protocol: as §6, §7
as §4, with “Mice were again weighed at the later time point.” left out

[8] = tested on: diet-induced obese C57BL/6 mice; test: Core body temperature after acute i.p. dosing of fasted diet-induced obese mice; conditions: overnight fasted DIO C57BL/6 mice, i.p. 0.3, 1, 3 or 10 mpk NMU, 6 h monitoring
Protocol: FIG. 5 presents the results of an experiment where overnight fasted diet-induced obese C57BL/6 mice were dosed i.p. with either vehicle (saline); 0.3, 1, 3 or 10 mpk NMU; or 5 mpk MTII. Core temperature is plotted as change from vehicle baseline. A, hourly change. B, 6-h cumulative change.
Body temperature changes were measured as well. Male diet-induced obese mice maintained on a high fat diet were implanted with Mini-Mitter transmitters (Mini Mitter, Bend, Oreg.) prior to the study. Temperature recordings were initiated one day prior to dosing. Mice were fasted overnight and then the following morning 3 h after the onset of the light phase mice were dosed ip. Core body temperature was monitored for 6 h following dosing.

DIO mice = test: 13-day chronic subcutaneous infusion in DIO mice
Protocol: as §5, §3

C57BL/6 mice [9] = test: Acute nocturnal feeding study, peripheral (i.p.) NMU in wild-type mice; conditions: i.p. (peripheral) ~30 min before dark phase, measured 18 h later
Protocol: as §1, §2
All resultant measurement values were reported as mean±S.E.M. and data was analyzed by the two-tailed unpaired Student's t test. […]

[10] = tested on: lean and DIO C57BL/6 mice; test: Ad libitum food intake of lean and DIO mice after rat NMU peptide
Protocol: as §4

[11] = Nmur1−/− transgenic mice, mouse NMU-23 peptide administration, route not stated
[12] = C57BL/6 mice, 12, 36 or 120 μg NMU/day i.c.v. infusion for 14 days
[13] = C57BL/6 mice, 12, 36 or 120 μg NMU/day i.c.v. infusion for 14 days, listed as mouse NMU-23

NMU: Mouse NMU-23 neuromedin U peptide (Phoenix Pharmaceuticals, Mimotopes), agonist of NMUR1 and NMUR2 (FKAEYQSPSVGQSKGYFLFRPRN; ends and bridges not checked; UniProt Q9QXK8 144-166, looked up)
anorectic actions (food intake) (Nmur2−/− mice [1]): present
body weight (Nmur1−/− mice [2]; Nmur1 knockout mice, peripheral (i.p.) 30 mpk NMU, 18 h): not seen
food intake (anorectic action) (Nmur1−/− mice [2]; Nmur1 knockout mice, peripheral (i.p.) 30 mpk NMU, 18 h, 30 mg/kg): not seen; also recorded: absent
body temperature (Nmur1−/− mice [2]; [11]): largely unaffected
body weight (Nmur1−/− mice [2]; [11]): largely unaffected
food intake (Nmur1−/− mice [2]; [11]): largely unaffected
body composition (C57BL/6 mice [3]; 14-day chronic i.c.v. infusion): Effects are also seen
adiposity, 14-day cumulative (C57BL/6 mice [3]; [12]): dose-dependent cumulative effects; also recorded: reduces
body weight, 14-day cumulative (C57BL/6 mice [3]; [12]): dose-dependent cumulative effects; also recorded: reduces
food intake, 14-day cumulative (C57BL/6 mice [3]; [12]): dose-dependent cumulative effects; also recorded: reduces
body weight, 14-day cumulative (C57BL/6 mice [3]; [13]): Effects are also seen
food intake, 14-day cumulative (C57BL/6 mice [3]; [13]): Effects are also seen
anorectic actions (food intake) (Nmur1−/− mice [4]): present
adiposity, 7-day cumulative (C57BL/6 mice [5]): dose-dependent effects; also recorded: reduces
body weight, 7-day cumulative (C57BL/6 mice [5]): dose-dependent effects; also recorded: reduces
food intake, 7-day cumulative (C57BL/6 mice [5]): dose-dependent effects; also recorded: reduces
food intake (anorectic action) (Nmur2−/− mice [6]): do not show the same reduction; also recorded: absent
food intake (C57BL/6 mice [7]): reduces
core body temperature (change from vehicle baseline) [8]: dose-dependent effect; also recorded: dose-dependently increases
body weight (DIO mice): demonstrable effects
core temperature (DIO mice): demonstrable effects
food intake (DIO mice): demonstrable effects
body weight (C57BL/6 mice [9]): dose-dependent reduction
food intake (C57BL/6 mice [9]): dose-dependent reduction; also recorded: reduces

rNMU-23: a rat NMU peptide (YKVNEYQGPVAPSGGFFLFRPRN; ends and bridges not checked; UniProt P12760 144-166, looked up)
ad libitum food intake [10]: mimic those of the mouse isoform
